{"source": "patent US7479493B2", "about": "“Substituted benzyl amine compounds” (Janssen Pharmaceutica N.V., priority 2006, dated 2009)", "key": {"[1]": {"molecular_target": "cloned human H3 receptor (Homo sapiens, UniProt Q9Y5N1)", "sequence (Q9Y5N1 whole entry)": "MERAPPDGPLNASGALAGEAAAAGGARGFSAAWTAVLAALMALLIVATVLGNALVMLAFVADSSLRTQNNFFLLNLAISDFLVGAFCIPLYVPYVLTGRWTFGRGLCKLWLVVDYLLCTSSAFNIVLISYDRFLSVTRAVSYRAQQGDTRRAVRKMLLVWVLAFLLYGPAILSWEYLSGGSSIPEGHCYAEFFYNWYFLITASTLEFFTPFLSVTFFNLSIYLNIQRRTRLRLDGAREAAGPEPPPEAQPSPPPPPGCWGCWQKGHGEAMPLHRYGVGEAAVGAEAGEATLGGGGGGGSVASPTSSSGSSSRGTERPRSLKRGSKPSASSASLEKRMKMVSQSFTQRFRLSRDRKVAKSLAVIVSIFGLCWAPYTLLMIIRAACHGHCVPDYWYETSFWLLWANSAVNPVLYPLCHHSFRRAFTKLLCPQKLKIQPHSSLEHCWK", "assay": "H3 Receptor Binding", "details": "cloned human H3 receptor stably expressed in SK-N-MC cells"}, "[2]": {"molecular_target": "Rat SERT (Rattus norvegicus, UniProt P31652)", "sequence (P31652 whole entry)": "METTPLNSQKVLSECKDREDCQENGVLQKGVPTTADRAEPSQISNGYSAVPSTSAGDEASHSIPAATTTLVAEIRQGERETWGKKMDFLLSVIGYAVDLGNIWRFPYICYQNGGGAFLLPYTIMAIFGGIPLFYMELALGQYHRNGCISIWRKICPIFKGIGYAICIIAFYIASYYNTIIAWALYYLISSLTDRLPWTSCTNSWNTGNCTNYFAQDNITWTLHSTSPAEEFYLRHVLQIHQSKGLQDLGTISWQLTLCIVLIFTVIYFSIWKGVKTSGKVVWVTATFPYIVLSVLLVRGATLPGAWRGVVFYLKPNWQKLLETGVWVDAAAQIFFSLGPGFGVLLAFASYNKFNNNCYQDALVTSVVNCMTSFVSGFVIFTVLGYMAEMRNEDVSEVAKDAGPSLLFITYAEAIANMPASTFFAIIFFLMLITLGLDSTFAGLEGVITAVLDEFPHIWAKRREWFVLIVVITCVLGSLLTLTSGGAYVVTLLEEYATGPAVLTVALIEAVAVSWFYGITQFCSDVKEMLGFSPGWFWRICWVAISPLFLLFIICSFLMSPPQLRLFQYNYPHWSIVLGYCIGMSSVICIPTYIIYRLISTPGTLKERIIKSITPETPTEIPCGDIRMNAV", "assay": "biochemical", "method": "The supernatant was removed and re-centrifuged at 15,000 rpm for 30 min. […] Membranes were incubated with 0.6 nM [^3H]-Citalopram plus/minus test compounds for 60 min at 25° C. and harvested by rapid filtration over GF/C glass fiber filters (pretreated with 0.3% polyethylenimine) followed by four washes with ice-cold buffer. Nonspecific binding was defined in the presence of 100 μM fluoxetine."}}, "note": "pKi: −log10 of the molar value.", "data": [{"molecule": "CNCc1cc(C(=O)N2CCN(C3CC3)CC2)ccc1Oc1ccc(C)nc1", "note": "[Example 20, (4-Cyclopropyl-piperazin-1-yl)-[3-methylaminomethyl-4-(6-methyl-pyridin-3-yloxy)-phenyl]-methanone]", "values": [{"measurement": "pKi", "setting": "[1]", "result": 7.23}, {"measurement": "pKi", "setting": "[2]", "result": 6.72}]}, {"molecule": "CNCc1cc(C(=O)N2CCN(C3CC3)CC2)ccc1Oc1ccc(F)c(Cl)c1", "note": "[Example 21, [4-(3-Chloro-4-fluoro-phenoxy)-3-methylaminomethyl-phenyl]-(4-cyclopropyl-piperazin-1-yl)-methanone]", "values": [{"measurement": "pKi", "setting": "[1]", "result": 7.49}, {"measurement": "pKi", "setting": "[2]", "result": 7.72}]}, {"molecule": "CNCc1cc(C(=O)N2CCN(C3CC3)CC2)ccc1Oc1ccc(Cl)cc1F", "note": "[Example 22, [4-(4-Chloro-2-fluoro-phenoxy)-3-methylaminomethyl-phenyl]-(4-cyclopropyl-piperazin-1-yl)-methanone]", "values": [{"measurement": "pKi", "setting": "[1]", "result": 7.74}, {"measurement": "pKi", "setting": "[2]", "result": 7.68}]}, {"molecule": "CNCc1cc(C(=O)N2CCC(N3CCOCC3)CC2)ccc1Oc1ccc(SC)cc1", "note": "[Example 23, [3-Methylaminomethyl-4-(4-methylsulfanyl-phenoxy)-phenyl]-(4-morpholin-4-yl-piperidin-1-yl)-methanone]", "values": [{"measurement": "pKi", "setting": "[1]", "result": 7.30}, {"measurement": "pKi", "setting": "[2]", "result": 8.52}]}, {"molecule": "CNCc1cc(C(=O)N2CCN(C3CC3)CC2)ccc1Oc1cccc(Cl)c1F", "note": "[Example 24, [4-(3-Chloro-2-fluoro-phenoxy)-3-methylaminomethyl-phenyl]-(4-cyclopropyl-piperazin-1-yl)-methanone]", "values": [{"measurement": "pKi", "setting": "[1]", "result": 7.51}, {"measurement": "pKi", "setting": "[2]", "result": 6.89}]}, {"molecule": "CNCc1cc(C(=O)N2CC[C@H](N(C)C)C2)ccc1Oc1ccc(SC)cc1", "note": "[Example 25, (S)-(3-Dimethylamino-pyrrolidin-1-yl)-[3-methylaminomethyl-4-(4-methylsulfanyl-phenoxy)-phenyl]-methanone]", "values": [{"measurement": "pKi", "setting": "[1]", "result": 8.15}, {"measurement": "pKi", "setting": "[2]", "result": 9.05}]}, {"molecule": "CNCc1cc(C(=O)NCCN(C)C)ccc1Oc1cccc(Cl)c1", "note": "[Example 26, 4-(3-Chloro-phenoxy)-N-(2-dimethylamino-ethyl)-3-methylaminomethyl-benzamide]", "values": [{"measurement": "pKi", "setting": "[1]", "result": 7.00}, {"measurement": "pKi", "setting": "[2]", "result": 8.52}]}, {"molecule": "CNCc1cc(C(=O)NCCCN(C)C)ccc1Oc1cccc(Cl)c1", "note": "[Example 27, 4-(3-Chloro-phenoxy)-N-(3-dimethylamino-propyl)-3-methylaminomethyl-benzamide]", "values": [{"measurement": "pKi", "setting": "[1]", "result": 7.32}, {"measurement": "pKi", "setting": "[2]", "result": 9.10}]}, {"molecule": "CNCc1cc(C(=O)N2CCN(C3CC3)CC2)ccc1Sc1ccc(Cl)cc1", "note": "[Example 28, [4-(4-Chloro-phenylsulfanyl)-3-methylaminomethyl-phenyl]-(4-cyclopropyl-piperazin-1-yl)-methanone]", "values": [{"measurement": "pKi", "setting": "[1]", "result": 6.82}]}, {"molecule": "CNCc1cc(C(=O)N2CCN(C3CC3)CC2)ccc1Sc1ccccn1", "note": "[Example 29, (4-Cyclopropyl-piperazin-1-yl)-[3-methylaminomethyl-4-(pyridin-2-ylsulfanyl)-phenyl]-methanone]", "values": [{"measurement": "pKi", "setting": "[1]", "result": 6.77}]}, {"molecule": "CN(C)C1CCN(C(=O)c2ccc(CNC3CC3)c(Oc3cccnc3)c2)C1", "note": "(stereo not drawn) [Example 32, [4-Cyclopropylaminomethyl-3-(pyridin-3-yloxy)-phenyl]-(3-dimethylamino-pyrrolidin-1-yl)-methanone]", "values": [{"measurement": "pKi", "setting": "[1]", "result": 7.59}, {"measurement": "pKi", "setting": "[2]", "result": 5.22}]}, {"molecule": "CNCc1ccc(C(=O)N2CCN(C(C)C)CC2)cc1Oc1ccc(Cl)c(Cl)c1", "note": "[Example 37, [3-(3,4-Dichloro-phenoxy)-4-methylaminomethyl-phenyl]-(4-isopropyl-piperazin-1-yl)-methanone]", "values": [{"measurement": "pKi", "setting": "[1]", "result": 9.00}, {"measurement": "pKi", "setting": "[2]", "result": 8.70}]}, {"molecule": "CNCc1ccc(C(=O)N2CCN(C(C)C)CC2)cc1Oc1cccc(Cl)c1", "note": "[Example 38, [3-(3-Chloro-phenoxy)-4-methylaminomethyl-phenyl]-(4-isopropyl-piperazin-1-yl)-methanone]", "values": [{"measurement": "pKi", "setting": "[1]", "result": 8.40}, {"measurement": "pKi", "setting": "[2]", "result": 6.89}]}, {"molecule": "CNCc1ccc(C(=O)N2CCN(C3CC3)CC2)cc1Oc1ccc(Cl)c(Cl)c1", "note": "[Example 39, (4-Cyclopropyl-piperazin-1-yl)-[3-(3,4-dichloro-phenoxy)-4-methylaminomethyl-phenyl]-methanone]", "values": [{"measurement": "pKi", "setting": "[1]", "result": 7.82}, {"measurement": "pKi", "setting": "[2]", "result": 7.77}]}, {"molecule": "CNCc1cc(N2CCN(C(C)C)CC2)ccc1Oc1ccc(SC)cc1", "note": "[Example 40, [5-(4-Isopropyl-piperazin-1-yl)-2-(4-methylsulfanyl-phenoxy)-benzyl]-methyl-amine]", "values": [{"measurement": "pKi", "setting": "[1]", "result": 8.15}, {"measurement": "pKi", "setting": "[2]", "result": 10.00}]}, {"molecule": "CNCc1cc(N2CCN(C)CC2)ccc1Oc1ccc(SC)cc1", "note": "[Example 41, Methyl-[5-(4-methyl-piperazin-1-yl)-2-(4-methylsulfanyl-phenoxy)-benzyl]-amine]", "values": [{"measurement": "pKi", "setting": "[1]", "result": 6.68}, {"measurement": "pKi", "setting": "[2]", "result": 9.40}]}, {"molecule": "CNCc1cc(N2CCN(C3CCC3)CC2)ccc1Oc1ccc(SC)cc1", "note": "[Example 42, [5-(4-Cyclobutyl-piperazin-1-yl)-2-(4-methylsulfanyl-phenoxy)-benzyl]-methyl-amine]", "values": [{"measurement": "pKi", "setting": "[1]", "result": 8.22}, {"measurement": "pKi", "setting": "[2]", "result": 9.52}]}, {"molecule": "COCCN(CCOC)Cc1ccc(C(=O)N2CCN(C3CC3)CC2)cc1Oc1ccc(C)nc1C", "note": "[Example 82, [4-{[Bis-(2-methoxy-ethyl)-amino]-methyl}-3-(2,6-dimethyl-pyridin-3-yloxy)-phenyl]-(4-cyclopropyl-piperazin-1-yl)-methanone]", "values": [{"measurement": "pKi", "setting": "[1]", "result": 6.70}]}, {"molecule": "Cc1ccc(Oc2cc(C(=O)N3CCN(C(C)C)CC3)ccc2CN2CCOCC2)c(C)n1", "note": "[Example 83, [3-(2,6-Dimethyl-pyridin-3-yloxy)-4-morpholin-4-ylmethyl-phenyl]-(4-isopropyl-piperazin-1-yl)-methanone]", "values": [{"measurement": "pKi", "setting": "[1]", "result": 7.68}]}, {"molecule": "CN(C)Cc1ccc(C(=O)N2CCCCC2)cc1Oc1ccccc1", "note": "[Example 84, (4-Dimethylaminomethyl-3-phenoxy-phenyl)-piperidin-1-yl-methanone]", "values": [{"measurement": "pKi", "setting": "[1]", "result": 5.35}]}, {"molecule": "COCCN(CCOC)Cc1ccc(C(=O)N2CCN(C(C)C)CC2)cc1Oc1ccccc1", "note": "[Example 85, (4-{[Bis-(2-methoxy-ethyl)-amino]-methyl}-3-phenoxy-phenyl)-(4-isopropyl-piperazin-1-yl)-methanone]", "values": [{"measurement": "pKi", "setting": "[1]", "result": 7.92}]}, {"molecule": "COCCN(CCOC)Cc1ccc(C(=O)N2CCC(N(C)C)CC2)cc1Oc1cccnc1", "note": "[Example 86, [4-{[Bis-(2-methoxy-ethyl)-amino]-methyl}-3-(pyridin-3-yloxy)-phenyl]-(4-dimethylamino-piperidin-1-yl)-methanone]", "values": [{"measurement": "pKi", "setting": "[1]", "result": 6.70}]}, {"molecule": "CC(C)N1CCN(Cc2ccc(C(=O)N3CCCCC3)cc2Oc2ccccc2)CC1", "note": "[Example 87, [4-(4-Isopropyl-piperazin-1-ylmethyl)-3-phenoxy-phenyl]-piperidin-1-yl-methanone]", "values": [{"measurement": "pKi", "setting": "[1]", "result": 6.55}]}, {"molecule": "CC(C)N1CCN(Cc2ccc(C(=O)N3CCCCC3)cc2Oc2cccnc2)CC1", "note": "[Example 88, [4-(4-Isopropyl-piperazin-1-ylmethyl)-3-(pyridin-3-yloxy)-phenyl]-piperidin-1-yl-methanone]", "values": [{"measurement": "pKi", "setting": "[1]", "result": 6.66}]}, {"molecule": "CNCCNC(=O)c1ccc(CN(C)C)c(Oc2cccnc2)c1", "note": "[Example 89, 4-Dimethylaminomethyl-N-(2-methylamino-ethyl)-3-(pyridin-3-yloxy)-benzamide]", "values": [{"measurement": "pKi", "setting": "[1]", "result": 5.72}]}, {"molecule": "CN(C)Cc1ccc(C(=O)NCCN(C)C2CC2)cc1Oc1cccnc1", "note": "[Example 90, N-[2-(Cyclopropyl-methyl-amino)-ethyl]-4-dimethylaminomethyl-3-(pyridin-3-yloxy)-benzamide]", "values": [{"measurement": "pKi", "setting": "[1]", "result": 7.35}]}, {"molecule": "COc1cccc(Oc2ccc(C(=O)N3CCN(C(C)C)CC3)cc2CN(C)C(=O)OC(C)(C)C)c1", "note": "[Example 91, [5-(4-Isopropyl-piperazine-1-carbonyl)-2-(3-methoxy-phenoxy)-benzyl]-methyl-carbamic acid tert-butyl ester]", "values": [{"measurement": "pKi", "setting": "[1]", "result": 7.24}]}]}
